This is an account of results in US7910586B2, “Compositions and methods for prevention and treatment of amyloid-β peptide-related disorders” (The Rockefeller University, priority 2002, dated 2011).

pIC50: −log10 of the molar value. Where a name gives a salt, the structure may show the parent alone.

Series [1] concerns rat embryonic cortical neurons. The series is described as follows: Aβ production in rat primary embryonic cortical neuronal cultures. The series is classed as cell-based. The following applies: for production of Aβ peptides: normal rat primary neuronal cell cultures; for concentration at which significant reductions in Aβ were observed: primary cortical neuronal cultures, dose response, FIGS. 13 and 14. From the text:
Cultures of rat embryonic cortical neurons were established from day 18 pregnant SD rats using standard techniques (Gasparini et al., 2001, J. Neurosci. 21(8):2561-2570).
The next day, cells were labeled with ^35S-methionine and cysteine for four hours in the presence of compounds as above. Media and cells were then harvested and subjected to immunoprecipitation with antibody 4G8, to detect Aβ and APP. The media was serially immunoprecipitated first with antibody 4G8 and then antibody 22C11, for detection of secreted Aβ, sAPPP and sAPPα. Immunoprecipitates were subjected to PAGE and resolved by autoradiography; APP metabolites were compared by densitometry.

Another series deals with γ-secretase. Description: Isolated γ-secretase activity: Aβ release (ELISA) from membranes of N2a cells expressing recombinant C99. The note with it: membranes from N2a cells expressing C99, with ATP; FIG. 4. The series is classed as biochemical, mouse. Here is the method:
For the assay of isolated γ-secretase activity, membranes were isolated from N2a cells expressing a recombinant γ-secretase substrate, C99, according to the methods of Zhang et al. (2001, Biochemistry 40: 5049-5055). […] Also, to determine whether ATP was primarily responsible for stimulating γ-secretase activity, the previous energy regenerating system was substituted with one designed to sustain concentrations of ATP alone but not GTP. Aβ release from isolated membranes was determined by ELISA (Biosource International, Camarillo, Calif.).

Series [2] has as its system N2a cells transfected with the human Swedish APP mutation. Description: Aβ generation in N2a cells transfected with human Swedish APP and normal or ΔE9 presenilin 1 (immunoprecipitation, autoradiography, Western blot). Format: cell-based, mouse. The following applies: for Aβ after one hour of treatment: 35S labeled N2a cells expressing human APP-Swedish. Here is the method:
N2a cells transfected with the human Swedish APP mutation, and with either normal human presenilin 1 or ΔE9 mutant presenilin 1 (PS1), were used for assays of compound effect on Aβ generation.
Media was added with compound concentration of 0, 10^−9, 10^−8, 10^−7 and 10^−6 M; cells were incubated overnight at 37° C. The next day, cells were incubated with ^35S-methionine and ^35S-cysteine for four hours in the presence of the compound as above.
Media and cells were separately harvested and subjected to immunoprecipitation with antibody 4G8 (Senetek, Napa, Calif.), which recognizes an epitope corresponding to residues 17-28 of Aβ. Antibody 4G8 immunoprecipitates Aβ from media, and Aβ plus full-length APP from cells. After removal of antibody 4G8 and bound Aβ from media, the supernatant was reacted with 22C11 (Chemicon International), an antibody that immunoprecipitates sAPPβ and sAPPα. Immunoprecipitates were subjected to PAGE and resolved by autoradiography according to standard methods. APP metabolites were compared by densitometry according to standard methods.
In other experiments, immunoprecipitation followed by Western blot analysis was carried out on unlabeled (no radioactive label) N2a cells, using standard methods and using 6E10 (Senetek, Napa, Calif.) or 22C11 antibodies for detection.
These immunoprecipitation experiments were repeated using a minimal treatment time, 1 hour instead of overnight.

In a further series the test system is brain Aβ40, Aβ42 and C99. The series is described as follows: Brain Aβ and C99 in wild-type guinea pigs after intrathecal osmotic minipump treatment. Format: in vivo, guinea pig. The note with it: 2.8 mg/kg, 7 days. The method, then:
After 7 days of treatment, animals were sacrificed, and their brains homogenized in 25 mM Tris 7.5, 50 mM NaCl, 1 mM DTT, 5 mM EDTA, 1 mM EGTA, and 1× protease inhibitor cocktail (Complete™, Boehringer Biochemicals). Aliquots of brain homogenate were assayed for Aβ peptide by using a sandwich ELISA according the manufacturer's recommendations (Biosource International, Camarillo, Calif.) and for C99 by immunoprecipitation and Western blot analysis using standard methods.

Series [3] has as its system wild-type 3T3 mouse fibroblasts. The series is described as follows: Aβ production in wild-type 3T3 mouse fibroblasts. The series is classed as cell-based. The note with it: 5 μM or 10 μM STI-571; 0.5 μM or 1.0 μM Compound 1; similar degree as in Abl−/− and N2a cells. Here is the method: (§1) Abl knockout (Abl−/−) 3T3 mouse fibroblasts and wild-type 3T3 mouse fibroblasts (see Liu et al., 1996, Nature 384(6606):273-6) were grown separately and to confluence in 100 mm Corning tissue culture plates. These fibroblast cell lines are permanent cell lines. […] Several other plates were exposed to either 0.5 μM or 1.0 μM Compound 1 (dissolved in DMSO) or to DMSO without Compound 1.
(§2) For the above-described cell cultures, each of the drugs or control solvents was added to a standard culture medium (DMEM+10% FBS+pen/strep) at a dilution of 1:1000 and cultures were then incubated at 37° C. for 2 hours. The contacting of cell cultures and incubation with inhibitors and solvent, as described above, constituted “pretreatment” of cells.
(§3) The first culture medium was then removed and the cell cultures were rinsed with a second culture medium lacking methionine, cysteine and glutamate. The cell cultures were incubated with this culture medium for 30 minutes (to stimulate subsequent uptake of amino acids). Then the second culture medium was exchanged for fresh first culture medium containing ^35S-labeled methionine and cysteine (NEN Express label 50 μl/ml) and unlabeled glutamine (final concentration 2 mM) and with inhibitors as described above, and incubated for 4 hours at 37° C. […]

For series [4], the system named is Abl knockout (Abl−/−) 3T3 mouse fibroblasts. Description: Aβ production in Abl knockout (Abl−/−) 3T3 mouse fibroblasts. The following applies: 5 μM or 10 μM STI-571; 0.5 μM or 1.0 μM Compound 1; similar degree as in wild-type and N2a cells. The series is classed as cell-based. The method, then:
as §1, §2, §3

Series [5] has as its system rat embryonic cortical neurons. Description: Aβ production in rat primary embryonic cortical neuronal cultures. Format: cell-based.
The subject of series [6] is N2a cells expressing Swedish variant of human APP and the PS1 mutation. The series is described as follows: Mass spectrometry (Ciphergen ProteinChip, SELDI-TOF) of Aβ40 and Aβ42 in media from N2a cells. Format: cell-based, mouse. The note with it: FIG. 5. The method, then: Mass spectrometry was carried out on media from N2a cells to detect Aβ40 and Aβ42 peptides using the CiphergenProteinChip System (Ciphergen Biosystems Inc., Fremont, Calif.), which is based on Seldi and time-of-flight mass spectrometry, using standard protocols as set out by the manufacturer. The experimental procedures were the same as those disclosed above for immunoprecipitation/Western blotting, without metabolic labeling. […] Aliquots of detergent treated media were contacted to a metal chip that was previously contacted with an antibody, such as 6E10. The antibody binds human APP metabolites, including Aβ, in the applied sample. Detection of bound antigen followed a laser pulse that dissociated antigen from antibody.
Aβ peptides were resolved graphically as peaks of various heights, situated on an x-axis denoting molecular mass. Thus, Aβ40 and Aβ42 were resolved separately at approximately 4333 and 4519 daltons, respectively. The relative heights or areas under the peaks in a given spectrum denoted the relative concentrations of the detected species. Peaks corresponding to the same species, as conveyed by molecular mass, were compared among different spectra, reflecting different samples, to measure relative quantities of Aβ among a set of samples.

The subject of a further series is mΔe-Notch. Description: Notch cleavage in N2a cells transfected with mΔe-Notch. The series is classed as cell-based, mouse. The following applies: at levels that strongly inhibit Aβ-formation; FIGS. 17 and 18. From the text: N2a cells were transfected with a constitutively active truncated form of Notch, mouse “deleted-extracellular” Notch (mΔe-Notch), which supplies a direct substrate for γ-secretase (De Strooper et al., 1999, Nature 398: 518-522).

On to `CSc1cccc(Nc2ncc3cc(-c4c(Cl)cccc4Cl)c(=O)n(C)c3n2)c1` [Compound 1], for which, in series [1], the “production of Aβ peptides” value is given as “inhibit” and the “concentration at which significant reductions in Aβ were observed” value was found to be 0.5 µM. For the same compound, the “secretion of soluble APP-α” value in [1] (primary neuronal cells cultured from rat brain, FIG. 9) was “consistent secretion”. The “levels of Aβ in cells” value in [1] (rat cortical neurons) is “reduced”. In [1] (rat cortical neurons, FIG. 8A, FIG. 10), the “levels of Aβ in media” value was “reduced”. Moreover, in series [1] (rat cortical neurons, FIG. 9), the “total cellular APP” value was “not reduced significantly” and the “total sAPP” value is recorded as “not reduced significantly”. Moreover, the “Aβ generation in isolated membranes” value in the series with γ-secretase is listed as “dose-dependent decrease”. The “Aβ after one hour of treatment” value in [2] (FIGS. 6 and 7) is “dose-dependent decrease”. Further, the negative logarithm of the IC50 (pIC50) (commonly the IC50 on a negative log10 scale, so that one unit is a factor of ten) in series [2] (N2a cells expressing APP and either normal human presenilin 1 or ΔE9 mutant presenilin 1, read-out: IC50 (inhibited total levels of Aβ by 50%)) was over 6.00. The appearance of animals result with brain Aβ40, Aβ42 and C99 is “healthy and active”. Besides, in the series with brain Aβ40, Aβ42 and C99 (FIG. 16C), the “full-length βAPP levels” value is given as “do not change”. Further, the Aβ production result in series [3] is on record as “inhibited”. Besides, the Aβ production entry in series [4] is reported as “inhibited”. Further, in [5], the cytotoxicity entry is “not cytotoxic”. In series [6], the Aβ40 level entry was “dramatically reduced” and the Aβ42 level result was “dramatically reduced”. Further, in the series with mΔe-Notch, the “cleavage of mΔe-Notch to form Notch intracellular domain (NICD)” value is given as “unaffected”.

Consider `Cc1ccc(NC(=O)c2ccc(CN3CCN(C)CC3)cc2)cc1Nc1nccc(-c2cccnc2)n1` [STI-571, imatinib mesylate, reference compound], for which, in series [1], the “production of Aβ peptides” value is listed as “inhibit” and the “concentration at which significant reductions in Aβ were observed” value turned out to be 5 µM. Further, the “Aβ after one hour of treatment” value in series [2] (FIGS. 6 and 7) is reported as “dose-dependent decrease”. In series [2] (intact N2a cells expressing Swedish variant of human APP, FIGS. 6 and 7), the APP levels entry is reported as “do not change”. Further, the Aβ production entry in series [3] is “inhibited”. Moreover, in series [4], the Aβ production entry is reported as “inhibited”.
